Some results are limits rather than exact numbers.

One assay deals with T1, Human KRAS G12V (Homo sapiens, UniProt P01116, G12V).
T1 construct: purchased PerkinElmer
The experiment in a line: KRAS-G12V/GTP binding assay (HTRF kit). As to conditions: 25° C., 1 h. Here is the method:
Test Example 2: KRAS G12V Binding Assay
In this method, the inhibitory effects of the compounds on the binding of KRAS G12V to GTP were assayed by a homogeneous time-resolved fluorescence (HTRF) technique using a KRAS-G12V/GTP binding assay kit (PerkinElmer).
The experimental procedures were as follows (refer to the kit instructions for detailed test methods): the compounds of the present disclosure were each firstly dissolved in DMSO at a concentration of 20 mM, and then diluted in an equal gradient with a buffer in the kit, so that the final concentrations of the test compounds in the reaction system were in a range of 0.02-5000 nM, and the final concentration of DMSO was 0.5%. 5 μL of each compound was incubated with 5 μL of 1× Human KRAS G12V 6His-tagged (PerkinElmer), 5 µL of 1×6His Eu Cryptate Antibody (PerkinElmer), and 5 μL of 1×GTP Red reagent (PerkinElmer) in a 384-well plate (Greiner) at 25° C. for 1 h. After the incubation was completed, the fluorescence intensity of each well was measured at the excitation wavelength of 337 nm and the emission wavelengths of 620 nm and 665 nm with an EnVision microplate reader (PerkinElmer) in the HTRF mode, and Ratio values were calculated using the formula: Ratio=(665 nm/620 nm)×10^4. The inhibition rates of the compounds at each concentration were calculated by comparing the fluorescence intensity ratio with that of the control group. Then non-linear curve fittings for logarithmic concentration-inhibition rate were performed using the GraphPad Prism 8 analysis software, and the IC50 values of the compounds were obtained (Table 3).
On the technique in general: TR-FRET usually uses a lanthanide donor and a delayed reading to cut background.

The target of assay [1] is T2, KRAS G13D protein in DLD-1 cells (Homo sapiens, UniProt P01116, G13D).
T2 construct: endogenous in cells; host or cells: DLD-1
T2 sequence (P01116 1-188 isoform P01116-2 G13D): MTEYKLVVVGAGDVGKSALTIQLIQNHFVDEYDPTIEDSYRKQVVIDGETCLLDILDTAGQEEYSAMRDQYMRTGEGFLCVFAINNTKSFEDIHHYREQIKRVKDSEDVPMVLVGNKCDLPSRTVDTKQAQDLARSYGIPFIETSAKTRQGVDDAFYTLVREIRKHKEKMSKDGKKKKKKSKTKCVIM
Put plainly: KRAS degradation assay (Western Blot) in DLD-1 cells. The assay is classed as cell-based. The following applies: 24 h. The method in brief:
(§1)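 After a 24 h treatment spanning 0.03–3000 nM, remaining KRAS protein is quantified by ECL immunoblot against a β-actin internal reference. Degradation is expressed relative to vehicle-treated cells and curve-fitted for DC50 and Dmax.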
Background: In western blotting, separated proteins are transferred to a membrane and probed.

For assay [2], the target named is T3, KRAS WT (expanded) protein in MKN1 cells (Homo sapiens, UniProt P01116).
T3 construct: endogenous in cells; host or cells: MKN1 (MKN-1)
T3 sequence (P01116 1-188 isoform P01116-2): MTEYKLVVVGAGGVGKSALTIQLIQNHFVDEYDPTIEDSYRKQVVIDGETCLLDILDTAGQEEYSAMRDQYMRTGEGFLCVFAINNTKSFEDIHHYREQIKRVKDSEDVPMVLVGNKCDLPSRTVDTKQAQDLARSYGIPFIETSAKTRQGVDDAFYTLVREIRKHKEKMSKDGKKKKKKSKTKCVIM
Put plainly: KRAS degradation assay (Western Blot) in MKN1 cells. The class given is cell-based. As to conditions: for DC50: 24 h; for Dmax: MKN-1, 24 h. From the text: (§2) Test Example 5: KRAS G12C, KRAS G12D, KRAS G12V, KRAS G13D, and KRAS WT (Expanded) Degradation Assays
(§3) The degradation effect of the compounds on KRAS was investigated on KRAS G12C mutant human non-small cell lung cancer cell NCI-H358, KRAS G12D mutant human metastatic pancreatic cancer cell AsPc-1, KRAS G12D mutant human lung cancer cell A427, KRAS G12V mutant human colorectal cancer cell SW620, KRAS G12V mutant human lung cancer cell SW900, KRAS G13D mutant human colorectal cancer epithelial cell DLD-1, and KRAS WT human gastric cancer cell MKN-1. The specific procedures were as follows: 0.95 mL of cells were seeded into each well of a 24-well cell culture plate to achieve a cell density of 5×10^5 cells/well; and the cell plate was incubated in an incubator at 37° C. with 5% CO2 overnight. Then 50 μL of the compound solution after dilution was added to each of the wells with the corresponding cells, so that the final concentration of the compound was in a range of 0.03-3000 nM. The final concentration of DMSO was 0.25%. After the compounds were added, the cell plate was incubated in an incubator at 37° C. with 5% CO2 for 24 h. The culture medium in the 24-well cell culture plate was then removed, and the plate was washed twice with 1×PBS (KeyGEN). 120 μL of RIPA (strong) lysis buffer (Beyotime) (supplemented with 1 mM phenylmethylsulfonyl fluoride, a protease inhibitor mixture (Beyotime), and a protease phosphatase inhibitor mixture (Beyotime)) was added to lyse adherent SW900 cells at the bottom of the cell culture plate. After the plate was left to stand on ice for 30 min, the protein lysate in each well was transferred to a 1.5 mL centrifuge tube and centrifuged at 15000 g for 20 min at 4° C. The cell lysate supernatants after centrifugation were cryopreserved in a refrigerator at −80° C. for later use.
(§4) After the samples of the cell lysate supernatants that had been prepared were thawed from the refrigerator at −80° C., the total protein concentrations of the cell lysates were determined using a BCA protein quantification kit (Tiangen). The total protein concentrations of the samples were then adjusted to 0.5 μg/μL with PBS and 5×SDS-PAGE protein loading buffer (Beyotime), and the samples were incubated in a water bath at 100° C. for 15 min. The samples were then incubated in an ice bath for 5 min and centrifuged at 14000 g for 1 min at 4° C., and the supernatants were mixed well as loading samples for the Western Blot assay. The samples were loaded into wells of a 10% precast gel (KeyGEN) with a loading volume of 10 μL (total protein: 5 μg), a sufficient Tris-MOPS-SDS running buffer (Adamas) was added, and then electrophoresis was performed at a constant voltage of 120 V for 55 min. After the electrophoresis, the proteins on the gel were transferred to PVDF membranes at a constant current of 250 mA for 55 min. After the membrane transfer, the PVDF membranes were incubated in 1× Quick Block blocking buffer (Beyotime)at room temperature for 30 min. After the blocking, the PVDF membranes were separately incubated at 4° C. overnight with the KRAS antibody (Abcam) diluted in a ratio of 1:1000 and the β-actin antibody (Abcam) diluted in a ratio of 1:2000 in 5% BSA as the diluent, and then washed with 1×TBST buffer (2.4 g of Tris, 8.8 g of NaCl, 1.5 mL of Tween 20, with pH adjusted to 7.4, with the volume brought to 1 L) 3 times for 10 min/time. The membranes were incubated with a secondary antibody (Abcam) diluted in 5% BSA at room temperature for 2 h, and then washed with 1×TBST buffer 3 times for 10 min/time. Finally, the membranes were incubated with Clarity Western ECL Substrate (BIO-RAD) for 5 min for luminescence and color development, and a ChemiScope 6200 Touch chemiluminescence imaging system (Clinx) was used for color development and protein mapping. Gray value analysis of the protein maps was performed using the chemiluminescence analysis software (Clinx). […]

The target of assay [3] is T4, KRAS G12C protein in NCI-H358 cells (Homo sapiens, UniProt P01116, G12C).
T4 construct: endogenous in cells; host or cells: NCI-H358
T4 sequence (P01116 1-188 isoform P01116-2 G12C): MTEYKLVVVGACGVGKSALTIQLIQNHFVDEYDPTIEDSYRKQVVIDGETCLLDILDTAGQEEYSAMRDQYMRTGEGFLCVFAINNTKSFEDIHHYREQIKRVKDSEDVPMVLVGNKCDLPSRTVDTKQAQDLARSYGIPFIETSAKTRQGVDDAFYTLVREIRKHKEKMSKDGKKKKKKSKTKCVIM
The experiment in a line: KRAS degradation assay (Western Blot) in NCI-H358 cells. The class given is cell-based. The following applies: 24 h.
Excerpt: as §2, §3, §4

In assay [4] the test system is KRAS G12D mutant human metastatic pancreatic cancer cell AsPc-1. Put plainly: 3D cell proliferation inhibition assay, AsPc-1. The following applies: ASPC1, 168 h, 3D culture, 7 days, CTG. The assay is classed as cell-based. Put shortly: (§5)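 Seven-day 3D growth at 37 °C in low-adsorption wells, 5×10^2 cells/well except MKN1 (1×10^3), final compound range 10000–0.026 nM in 0.2% DMSO. CTG luminescence read-out; percent inhibition set against DMSO and medium-only wells, IC50 by curve fitting.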

Assay [5] relates to KRAS G12C mutant human non-small cell lung cancer cell NCI-H358. The experiment in a line: 3D cell proliferation inhibition assay, NCI-H358. The following applies: NCI-H358, 168 h, 3D culture, 7 days, CTG. The assay is classed as cell-based. The method in brief: as §5
For assay [6], the system named is KRAS WT human gastric cancer cell MKN1. The experiment in a line: 3D cell proliferation inhibition assay, MKN1. The assay is classed as cell-based. The following applies: MKN-1, 168 h, 3D culture, 7 days, CTG. Put shortly: as §5
Assay [7] deals with T5, KRAS G12D protein in AsPc-1 cells (Homo sapiens, UniProt P01116, G12D).
T5 construct: endogenous in cells; host or cells: AsPc-1
T5 sequence (P01116 1-188 isoform P01116-2 G12D): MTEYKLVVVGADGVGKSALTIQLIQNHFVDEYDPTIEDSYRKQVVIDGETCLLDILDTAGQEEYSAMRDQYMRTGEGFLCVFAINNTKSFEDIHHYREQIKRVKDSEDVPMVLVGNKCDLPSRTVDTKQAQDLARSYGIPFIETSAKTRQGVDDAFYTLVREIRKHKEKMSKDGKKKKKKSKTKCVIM
The experiment in a line: KRAS degradation assay (Western Blot) in AsPc-1 cells. The assay is classed as cell-based. As to conditions: for DC50: 24 h; for Dmax: ASPC1, 24 h. Put shortly: as §1

Assay [8] deals with KRAS G12V mutant human colorectal cancer cell SW620. The experiment in a line: 3D cell proliferation inhibition assay, SW620. The class given is cell-based. The following applies: SW-620, 168 h, 3D culture, 7 days, CTG. The method in brief:
as §5

Assay [9] has as its target T6, KRAS G12V protein in SW620 cells (Homo sapiens, UniProt P01116, G12V).
T6 construct: endogenous in cells; host or cells: SW620
The experiment in a line: KRAS degradation assay (Western Blot) in SW620 cells. The class given is cell-based. The following applies: for DC50: 24 h; for Dmax: SW-620, 24 h. The method in brief: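 Cells seeded at 5×10^5 cells/well, incubated overnight, then treated 24 h at 37 °C with compound (final 0.03–3000 nM, 0.25% DMSO). KRAS in lysates measured by Western blot with β-actin normalisation; degradation versus vehicle control fitted to give DC50 and Dmax.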

Assay [10] relates to KRAS G13D mutant human colorectal cancer epithelial cell DLD-1. The experiment in a line: 3D cell proliferation inhibition assay, DLD-1. The class given is cell-based. As to conditions: DLD-1, 168 h, 3D culture, 7 days, CTG. The method in brief: as §5

T6 sequence (P01116 1-188 isoform P01116-2 G12V): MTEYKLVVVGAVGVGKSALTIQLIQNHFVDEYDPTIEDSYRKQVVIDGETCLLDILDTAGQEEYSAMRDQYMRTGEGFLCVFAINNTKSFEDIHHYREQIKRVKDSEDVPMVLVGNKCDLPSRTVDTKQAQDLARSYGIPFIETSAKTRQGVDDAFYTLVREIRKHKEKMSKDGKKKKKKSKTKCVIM
T1 sequence (P01116 1-188 isoform P01116-2 G12V): as above

One may read the IC50 as the midpoint of a concentration-inhibition curve. Read a low IC50 as greater potency. For the compound `C#Cc1c(F)ccc2cc(O)cc(-c3ncc4c(N5CCC[C@@](C)(O)C5)nc(OCC5(CN6CCN(C(=O)c7ccc(Cl)c(N8CCC(=O)NC8=O)c7)CC6)CC5)nc4c3F)c12` [Example 15, (R)-1-(2-chloro-5-(4-((1-(((7-(8-ethynyl-7-fluoro-3-hydroxynaphthalen-1-yl)-8-fluoro-4-(3-hydroxy-3-methylpiperidin-1-yl)pyrido[4,3-d]pyrimidin-2-yl)oxy)methyl)cyclopropyl)methyl)piperazine-1-carbonyl)phenyl)dihydropyrimidine-2,4(1H,3H)-dione], on Human KRAS G12V, the IC50 was at most 500 nM.

Broadly, the DC50 is the concentration giving 50% degradation. Low readings indicate a more potent degrader, high ones a less potent degrader. One may read the Dmax as the greatest extent of degradation seen. A high value points to a fuller loss of target. With `C#Cc1c(F)ccc2cc(O)cc(-c3ncc4c(N5CCC[C@@](C)(O)C5)nc(OC[C@H](C)CN5CCN(CC6CCC7(CC6)CCN(C(=O)c6ccc(C)c(N8CCC(=O)NC8=O)c6)CC7)CC5)nc4c3F)c12` [Example 47, 1-(5-(9-((4-((R)-3-((7-(8-ethynyl-7-fluoro-3-hydroxynaphthalen-1-yl)-8-fluoro-4-((R)-3-hydroxy-3-methylpiperidin-1-yl)pyrido[4,3-d]pyrimidin-2-yl)oxy)-2-methylpropyl)piperazin-1-yl)methyl)-3-azaspiro[5.5]undecane-3-carbonyl)-2-methylphenyl)dihydropyrimidine-2,4(1H,3H)-dione], the 50% degradation concentration (DC50) came out at 2.05 nM in assay [1]; 0.28 nM in assay [2]; 1.7 nM in assay [3]; 18.7 nM in assay [7]; 0.99 nM in assay [9]. For the same compound, the Dmax in [1] worked out at 100%; in [2], 97.4%; in [3] it was 88.9%; in assay [7], 93.3%; in [9] it was 100%. Also, the IC50 was 6.48 nM in assay [4]; 2.33 nM in assay [5]; 2.33 nM in assay [6]; 1.92 nM in assay [8]; 3.55 nM in assay [10].

Turning to `[2H]C([2H])([2H])Oc1ccc(C(=O)N2CCC3(CCC(CN4CCN(C[C@@H](C)COc5nc(N6CCC[C@@](C)(O)C6)c6cnc(-c7cc(O)cc8ccc(F)c(C#C)c78)c(F)c6n5)CC4)CC3)CC2)cc1N1CCC(=O)NC1=O` [Example 164, 1-(5-(9-((4-((R)-3-((7-(8-ethynyl-7-fluoro-3-hydroxynaphthalen-1-yl)-8-fluoro-4-((R)-3-hydroxy-3-methylpiperidin-1-yl)pyrido[4,3-d]pyrimidin-2-yl)oxy)-2-methylpropyl)piperazin-1-yl)methyl)-3-azaspiro[5.5]undecane-3-carbonyl)-2-(methoxy-d3)phenyl)dihydropyrimidine-2,4(1H,3H)-dione], the DC50 in assay [1] was determined as 4.39 nM; in assay [2], 1.25 nM; in assay [3] it was 1.11 nM; in assay [7], 5.91 nM; in assay [9] it was 7.48 nM. For the same compound, the Dmax worked out at 100% in assay [1]; 99.5% in assay [2]; 98.2% in [3]; 99.6% in [7]; 99.5% in assay [9]. Moreover, the IC50 was determined as 12.1 nM in assay [4]; 4.66 nM in [5]; 22.6 nM in assay [6]; 3.76 nM in assay [8]; 3.9 nM in assay [10].

With `[2H]C([2H])([2H])Oc1ccc(C(=O)N2CCC3(CCC(CN4CCN(CC5(COc6nc(N7CCC[C@@](C)(O)C7)c7cnc(-c8cc(O)cc9ccc(F)c(C#C)c89)c(F)c7n6)CC5)CC4)CC3)CC2)cc1N1CCC(=O)NC1=O` [Example 170, (R)-1-(5-(9-((4-((1-(((7-(8-ethynyl-7-fluoro-3-hydroxynaphthalen-1-yl)-8-fluoro-4-(3-hydroxy-3-methylpiperidin-1-yl)pyrido[4,3-d]pyrimidin-2-yl)oxy)methyl)cyclopropyl)methyl)piperazin-1-yl)methyl)-3-azaspiro[5.5]undecane-3-carbonyl)-2-(methoxy-d3)phenyl)dihydropyrimidine-2,4(1H,3H)-dione], the DC50 was 1.96 nM in assay [1]; 0.76 nM in assay [2]; 2.65 nM in assay [3]; 5.53 nM in assay [7]; 2.35 nM in [9]. In addition, the Dmax in [1] is 99.9%; in assay [2] it was 99.3%; in assay [3], 96.1%; in assay [7], 100%; in assay [9], 97.7%. The concentration for half-maximal inhibition (IC50) in assay [4] came to 6.31 nM; in assay [5] it was 2.49 nM; in assay [6], 6.7 nM; in assay [8] it was 2.59 nM; in [10] it was 6.28 nM.
